Laboratory results published in patent publication US20240148822A1, “ASSOCIATIONS OF FOSFOMYCIN AND COLISTIN FOR USE AGAINST BIOFILM-ASSOCIATED BACTERIAL INFECTIONS” (priority 2021, published 2024).
Converted amounts (≈) assume the structure as drawn.

Tests used:
Format in all cases: cell-based
A. baumannii [1] = experiment: Fosfomycin MIC, agar dilution method (CLSI); conditions: Acinetobacter baumannii
Protocol: (§1) Antimicrobial susceptibility testing was performed according to Clinical and Laboratory Standard Institute guidelines [CLSI_M07 2018, CLSI_M100 2020]. In particular, colistin MICs were determined by the broth microdilution method, and fosfomycin MICs by the agar dilution method (with the addition of 25 μg/ml of glucose-6-phosphate, as recommended). […] and P. aeruginosa ATCC 27853 were used for quality control purposes.

K. pneumoniae [2] = experiment: Fosfomycin MIC, agar dilution method (CLSI); conditions: Klebsiella pneumoniae
Protocol: as §1

P. aeruginosa [3] = experiment: Fosfomycin MIC, agar dilution method (CLSI); conditions: Pseudomonas aeruginosa
Protocol: as §1

S. maltophilia [4] = experiment: Fosfomycin MIC, agar dilution method (CLSI); conditions: Stenotrophomonas maltophilia
Protocol: as §1

[5] = system: A. baumannii preformed biofilms; experiment: Biofilm susceptibility testing (Nunc-TSP lid system), MBEC; conditions: 24 h exposure
Protocol: (§2) Fosfomycin and colistin Minimum Biofilm Eradication Concentrations (MBECs) were determined as previously described (Macia et al, mentioned above), with MBEC being defined as the lowest concentration of antibiotic that prevented visible bacterial growth in the recovery medium.

[6] = system: K. pneumoniae preformed biofilms; experiment: as above; conditions: 24 h exposure
Protocol: as §2

[7] = system: P. aeruginosa preformed biofilms; experiment: as above; conditions: 24 h exposure
Protocol: as §2

[8] = system: S. maltophilia preformed biofilms; experiment: as above; conditions: 24 h exposure
Protocol: as §2

[9] = system: all tested strains (Gram-negative clinical isolates); experiment: Fosfomycin MIC, agar dilution, summary over all tested strains
Protocol: as §1

A. baumannii [10] = experiment: Colistin MIC, broth microdilution method (CLSI)
Protocol: as §1

K. pneumoniae [11] = experiment: Colistin MIC, broth microdilution method (CLSI)
Protocol: as §1

P. aeruginosa [12] = experiment: Colistin MIC, broth microdilution method (CLSI)
Protocol: as §1

S. maltophilia [13] = experiment: Colistin MIC, broth microdilution method (CLSI)
Protocol: as §1

[14] = system: all tested strains (Gram-negative clinical isolates); experiment: Colistin MIC, broth microdilution, summary over all tested strains
Protocol: as §1

[15] = system: all tested strains (preformed biofilms); experiment: MBEC, summary over all tested strains; conditions: colistin
Protocol: as §2

[16] = strain FZ103, preformed biofilm
[17] = strain FZ105, preformed biofilm
[18] = strain FZ106, preformed biofilm
[19] = strain FZ108, preformed biofilm
[20] = strain FZ141, preformed biofilm
[21] = strain FZ139, preformed biofilm

## C[C@@H]1O[C@@H]1P(=O)(O)O [Fosfomycin, fosfomycin]
A. baumannii [1]; strain FZ1
  MIC: 512 µg/mL (≈ 3710 µM)
A. baumannii [1]; strain FZ2
  MIC: > 1020 µg/mL
A. baumannii [1]; strain FZ83
  MIC: 64 µg/mL (≈ 464 µM)
K. pneumoniae [2]; strain FZ80
  MIC: 128 µg/mL (≈ 927 µM)
K. pneumoniae [2]; strain FZ103
  MIC: 32 µg/mL (≈ 232 µM)
K. pneumoniae [2]; strain FZ105
  MIC: 16 µg/mL (≈ 116 µM)
K. pneumoniae [2]; strain FZ106
  MIC: 64 µg/mL (≈ 464 µM)
K. pneumoniae [2]; strain FZ108
  MIC: 128 µg/mL (≈ 927 µM)
K. pneumoniae [2]; strain FZ141
  MIC: ≤ 0.25 µg/mL
P. aeruginosa [3]; strain FZ18
  MIC: 64 µg/mL (≈ 464 µM)
P. aeruginosa [3]; strain FZ34
  MIC: > 1020 µg/mL
P. aeruginosa [3]; strain FZ45
  MIC: > 1020 µg/mL
P. aeruginosa [3]; strain FZ98
  MIC: 64 µg/mL (≈ 464 µM)
P. aeruginosa [3]; strain FZ139
  MIC: 8 µg/mL (≈ 57.9 µM)
S. maltophilia [4]; strain FZ6
  MIC: 64 µg/mL (≈ 464 µM)
S. maltophilia [4]; strain FZ8
  MIC: 128 µg/mL (≈ 927 µM)
S. maltophilia [4]; strain FZ85
  MIC: 32 µg/mL (≈ 232 µM)
[5]; strain FZ1, preformed biofilm
  Fosfomycin MBEC: >1024 µg/mL
[5]; strain FZ2, preformed biofilm
  Fosfomycin MBEC: >1024 µg/mL
[5]; strain FZ83, preformed biofilm
  Fosfomycin MBEC: >1024 µg/mL
[6]; strain FZ80, preformed biofilm
  Fosfomycin MBEC: >1024 µg/mL
[6]; [16]
  Fosfomycin MBEC: >1024 µg/mL
[6]; [17]
  Fosfomycin MBEC: >1024 µg/mL
[6]; [18]
  Fosfomycin MBEC: >1024 µg/mL
[6]; [19]
  Fosfomycin MBEC: >1024 µg/mL
[6]; [20]
  Fosfomycin MBEC: 4 µg/mL
[7]; strain FZ18, preformed biofilm
  Fosfomycin MBEC: >1024 µg/mL
[7]; strain FZ34, preformed biofilm
  Fosfomycin MBEC: >1024 µg/mL
[7]; strain FZ45, preformed biofilm
  Fosfomycin MBEC: >1024 µg/mL
[7]; strain FZ98, preformed biofilm
  Fosfomycin MBEC: >1024 µg/mL
[7]; [21]
  Fosfomycin MBEC: >1024 µg/mL
[8]; strain FZ6, preformed biofilm
  Fosfomycin MBEC: >1024 µg/mL
[8]; strain FZ8, preformed biofilm
  Fosfomycin MBEC: >1024 µg/mL
[8]; strain FZ85, preformed biofilm
  Fosfomycin MBEC: >1024 µg/mL
[9]
  MIC50: 64 μs/m1
  MIC90: > 1024 μs/ml

## colistin
A. baumannii [10]; strain FZ1
  Colistin MIC: 0.5 µg/mL
A. baumannii [10]; strain FZ2
  Colistin MIC: 1 µg/mL
A. baumannii [10]; strain FZ83
  Colistin MIC: 8 µg/mL
K. pneumoniae [11]; strain FZ80
  Colistin MIC: 0.5 µg/mL
K. pneumoniae [11]; strain FZ103
  Colistin MIC: 8 µg/mL
K. pneumoniae [11]; strain FZ105
  Colistin MIC: 128 µg/mL
K. pneumoniae [11]; strain FZ106
  Colistin MIC: 32 µg/mL
K. pneumoniae [11]; strain FZ108
  Colistin MIC: 32 µg/mL
K. pneumoniae [11]; strain FZ141
  Colistin MIC: 2 µg/mL
P. aeruginosa [12]; strain FZ18
  Colistin MIC: 4 µg/mL
P. aeruginosa [12]; strain FZ34
  Colistin MIC: 4 µg/mL
P. aeruginosa [12]; strain FZ45
  Colistin MIC: 4 µg/mL
P. aeruginosa [12]; strain FZ98
  Colistin MIC: 512 µg/mL
P. aeruginosa [12]; strain FZ139
  Colistin MIC: 4 µg/mL
S. maltophilia [13]; strain FZ6
  Colistin MIC: 4 µg/mL
S. maltophilia [13]; strain FZ8
  Colistin MIC: 4 µg/mL
S. maltophilia [13]; strain FZ85
  Colistin MIC: 16 µg/mL
[5]; strain FZ1, preformed biofilm
  Colistin MBEC: 64 µg/mL
[5]; strain FZ2, preformed biofilm
  Colistin MBEC: >1024 µg/mL
[5]; strain FZ83, preformed biofilm
  Colistin MBEC: 128 µg/mL
[6]; strain FZ80, preformed biofilm
  Colistin MBEC: 64 µg/mL
[6]; [16]
  Colistin MBEC: 64 µg/mL
[6]; [17]
  Colistin MBEC: 256 µg/mL
[6]; [18]
  Colistin MBEC: 256 µg/mL
[6]; [19]
  Colistin MBEC: >1024 µg/mL
[6]; [20]
  Colistin MBEC: 8 µg/mL
[7]; strain FZ18, preformed biofilm
  Colistin MBEC: >1024 µg/mL
[7]; strain FZ34, preformed biofilm
  Colistin MBEC: >1024 µg/mL
[7]; strain FZ45, preformed biofilm
  Colistin MBEC: >1024 µg/mL
[7]; strain FZ98, preformed biofilm
  Colistin MBEC: >1024 µg/mL
[7]; [21]
  Colistin MBEC: >1024 µg/mL
[8]; strain FZ6, preformed biofilm
  Colistin MBEC: >1024 µg/mL
[8]; strain FZ8, preformed biofilm
  Colistin MBEC: >1024 µg/mL
[8]; strain FZ85, preformed biofilm
  Colistin MBEC: >1024 µg/mL
[14]
  MIC50: 4 μs/ml
  MIC90: 32 μs/ml
[15]
  MBEC50: 512 µg/mL
